Legend:
[1] = Ocular PK (distribution) study in Dutch-belted rabbits, topical ocular dosing, compound 1003 measured by LC/MS/MS; assay type: in vivo; conditions: topical ocular administration of compounds 1001 and 1002 to rabbits, compared with each other
Experimental: The ocular distribution of compound 1001,
[drawing 220] in the ocular tissues of Dutch-belted rabbits when administered topically to the surface of the eye was evaluated.
Healthy, young adult Dutch-belted rabbits (male/female; at least 1.5 kg) were acclimated for at least 7 days prior to initiation of the study. Prior to the initiation of the study, the eyes of the rabbits were examined to ensure that the eyes were free of any defects that may affect the integrity of the study. Examinations were performed by a qualified observer.
Animals were dosed via the topical ocular route using a pipettor system which delivered a 30 μL dose to each eye. Each animal was dosed at T=0. The right eye received a dose concentration of 300 μg/mL of compound 1001 and the left eye received a dose concentration of 300 μg/mL of compound 1002. At the intervals noted in Table 3, the animals were sacrificed. […]
Spiking solutions for standards were prepared by diluting compound 1003 as its sodium salt (e.g., M is Na) (dissolved in ethanol) in ethanol spanning the concentration range of 0.100 to 4000 ng/mL of compound 1003. Two standard curves were extracted and subsequently analyzed one before and one after the samples. […]
Compound 1003 in the homogenized/extracted/dried/reconstituted samples was analyzed by LC/MS/MS using D4-PGE2 as the internal standard. […]

[2] = Chemical stability study, HPLC purity (% area) over time; assay type: physicochemical; conditions: for % Area Compound / % Area Impurity: 500 μg/mL ophthalmic formulation, pH 5.5, 5° C.; for time the reference solution was stable: reference solution in water/absolute ethanol (90/10 v/v), stored at 5° C.±3° C., protected from light
Experimental: The chemical stability of compounds 1001 and 1002 was measured via HPLC analysis of the purity of these compounds over time. The purity assay of active components using percent area (% area) and impurities reported as percent area (% area) were measured by HPLC using the following conditions:
A sample diluent was prepared with water/absolute ethanol (90/10 v/v).
Reference solutions of compounds 1001 and 1002 were prepared by weighing approximately 10 mg (±2 mg) of a 1 mg/mL stock solution of compound 1001 or 1002 into a 1 mL amber volumetric flask. Approximately 0.5 mL of sample diluent was added and the solution swirled to mix. The sample was diluted to volume with sample diluent and mixed well. The reference solution for compound 1001 was stable for up to 7 days stored at 5° C.±3° C., protected from light. The reference solution for compound 1002 was stable for up to 3 days stored at 5° C.±3° C., protected from light.
Ophthalmic formulations of compounds 1001 (0.994 g of a 52 mg/mL solution in propylene glycol) or compound 1002 (1.034 g of a 50 mg/mL solution in propylene glycol) were prepared at 500 μg/mL dose strength in potassium phosphate buffer (25 mM, pH 5.5, 0.34 g) with 0.2 M sodium hydroxide solution (q.s.), sodium chloride (0.327 g), polysorbate 80 (0.5% w/v), and purified water (q.s. to 100). Sample solutions of compounds 1001 and 1002 were each prepared by accurately weighing approximately 20 mg of the 500 μg/mL compound formulation into a 1 mL amber volumetric flask. Approximately 0.5 mL of sample diluent was added and the solution gently swirled to mix. The solution was diluted to volume with sample diluent and mixed well.
The following equation was used to calculate the compound 1001 or compound 1002 purity assay (% area) in each sample: Analogue Content(% area)=(Area of analog/Total area of all peaks≧0.10% area)×100.
Impurities≧0.10% area were integrated and reported as % area to 2 decimal places.
Tables 5 and 6 show the results of the chemical stability study of compounds 1001 and 1002, respectively, over the course of 8 weeks at 5° C.

[3] = test system: signs and symptoms of dry eye; assay: Study of compound 1001 in dry eye: multi-center, double-masked, randomized, placebo-controlled; assay type: in vivo, human patients; conditions: for change in ocular discomfort as compared to vehicle (ORA Ocular Discomfort Scale), improvement: dose C (275.6 μg/mL)
Source text: The objective of this study was to compare the efficacy of compound 1001 to placebo (vehicle minus active) for the treatment of the signs and symptoms of dry eye, in a multi-center, double-masked, randomized, placebo-controlled study in which 100 human patients were equally randomized into one of three active treatment groups or placebo and all treatment groups were exposed to identical humidity, temperature, and wind conditions which exacerbated the symptoms of dry eye. During a 14 day study run-in period prior to randomization (e.g., day −14 to day 0), all patients received placebo bilaterally two times per day (BID). At the time of treatment randomization (e.g., day 0), patients were exposed to 90 minutes of identical humidity, temperature, and wind conditions which exacerbated the symptoms of dry eye after which patients were stratified based on the following criterion: Central corneal staining post-exposure<2.5 or >3.0. Patients eligible to be randomized received one of the following treatments to be administered as approximately a 30 μL drop to both eyes BID: 1) Compound 1001 at dose A (26.4 μg/mL) Ophthalmic Solution; 2) Compound 1001 at dose B (87.8 μg/mL) Ophthalmic Solution; 3) Compound 1001 at dose C (275.6 μg/mL) Ophthalmic Solution; 4) Placebo Ophthalmic Solution (Vehicle minus active). Brief Summary of Visit Schedule. […] The primary endpoint of mean ocular discomfort in the conditions for exacerbating the symptoms of dry eye using the ORA Ocular Discomfort Scale (during the 90 minute exposure) was summarized statistically (m, mean, standard deviation, median, min and max), and analyzed with 1-sided t-tests comparing the best dose to placebo with a p-value<0.025 considered significant. […] Ocular discomfort during this exposure period was measured using the ORA Ocular Discomfort Scale with the ocular discomfort score being the average of all time points during exposure. Ocular discomfort was measured again at visit 5 (e.g., day 29). […] Symptoms of grittiness, dryness were measured on environmental day 28 on a visual analog scale of 0-5.

| Compound | levels of compound 1003 observed in the aqueous humor, the vitreous and the cornea (FIG. 1) [1] | % Area Compound ([2]; 1 week) [% Area] | % Area Impurity ([2]; 1 week) [% Area] | % Area Compound ([2]; 2 weeks) [% Area] | % Area Impurity ([2]; 2 weeks) [% Area] | % Area Compound ([2]; 4 weeks) [% Area] | % Area Impurity ([2]; 4 weeks) [% Area] | % Area Compound ([2]; 8 weeks) [% Area] | % Area Impurity ([2]; 8 weeks) [% Area] | % Area Compound ([2]; Initial) [% Area] | % Area Impurity ([2]; Initial) [% Area] | time the reference solution was stable [2] | chemical stability compared (percent purity over time) ([2]; 8 weeks at 5° C., compound 1001 versus compound 1002) | dryness, visual analog scale of 0-5, change as compared to vehicle ([3]; day 28, dose C (275.6 μg/mL) topically, FIG. 4) | change in ocular discomfort as compared to vehicle (ORA Ocular Discomfort Scale), improvement ([3]; day 28, approx. 30 μL drop to both eyes BID, FIG. 2) [%] | change in ocular discomfort as compared to vehicle (ORA Ocular Discomfort Scale), improvement ([3]; day 29, 24 hours after last treatment, FIG. 3) [%] |
| --- | --- | --- | --- | --- | --- | --- | --- | --- | --- | --- | --- | --- | --- | --- | --- | --- |
| C#CC[C@@H](O)/C=C/C=C/C#C[C@@H](O)CCCC(=O)OC [Compound 1002] | comparable levels | 97.58 | 2.43 | 97.46 | 2.55 | 96.54 | 3.46 | 94.95 | 5.05 | 98.29 | 1.71 | up to 3 days | – | – | – | – |
| C#CC[C@@H](O)/C=C/C=C/C#C[C@@H](O)CCCC(=O)OC(C)C [Compound 1001] | comparable levels | – | – | 99.03 | 0.97 | 99.39 | 0.61 | 99.31 | 0.69 | 99.55 | 0.45 | up to 7 days | better chemical stability | significant change | ~27 | ~36 |
